Results on 26 compounds are retold here after patent EP0258782A2, “Use of 1-(substituted mercapto-hydroxyethyl)-triazoles in the treatment of illnesses” (BAYER AG, priority 1986, dated 1988).

For one test, the system named is Torulopsis glabrata. The test can be described thus: Antimycotic in-vitro activity, serial dilution test (MIC). The class given is cell-based. The conditions noted are these: Nakaseomyces glabratus; Fleischextrakt-Traubenzucker-Bouillon; 28-37 °C, 24-96 h; inoculum 5 x 10^3 to 10^4 germs/ml; read-out: MHK-Werte in γ/ml Nährmedium, Torulopsis glabrata. On the procedure: (§1) Die in-vitro-Prüfungen wurden im Reihenverdünnungstest mit Keiminokula von durchschnittlich 5 x 10³ bis 10⁴ Keimen/ml Substrat durchgeführt. Als Nähmedium dienten • a) für Dermatophyten und Schimmelpilze: Sabouraud's milieu d'epreuve • b) für Hefen: Fleischextrakt-Traubenzucker-Bouillon.
(§2) Die Bebrütungstemperatur betrug 28 °C bis 37 °C, die Bebrütungsdauer lag bei 24 bis 96 Stunden bei Hefen und 96 Stunden bei Dermatophyten und Schimmelpilzen.

For another test, the system named is Aspergillus fumigatus. The description is as above. The conditions noted are these: Sabouraud's milieu d'epreuve, 28-37 °C, 96 h, inoculum 5 x 10^3 to 10^4 germs/ml, read-out: MHK-Werte in γ/ml Nährmedium, Aspergillus fumigatus. It counts as cell-based. On the procedure:
as §1, §2

The next test relates to Trichophyton mentagr. The test is described as above. It counts as cell-based. The conditions noted are these: Sabouraud's milieu d'epreuve, 28-37 °C, 96 h, inoculum 5 x 10^3 to 10^4 germs/ml, read-out: MHK-Werte in γ/ml Nährmedium, Trichophyton mentagr. On the procedure:
as §1, §2

The test system of another test is Microsporum canis. The test is described as above. The following applies: Sabouraud's milieu d'epreuve, 28-37 °C, 96 h, inoculum 5 x 10^3 to 10^4 germs/ml, read-out: MHK-Werte in γ/ml Nährmedium, Microsporum canis. It counts as cell-based. On the procedure:
as §1, §2

In another test the test system is Candida albicans. The test is described as above. The class given is cell-based. The conditions noted are these: Fleischextrakt-Traubenzucker-Bouillon, 28-37 °C, 24-96 h, inoculum 5 x 10^3 to 10^4 germs/ml, read-out: MHK-Werte in γ/ml Nährmedium, Candida albicans. On the procedure:
as §1, §2

The next test concerns Candida-Zellen. The test can be described thus: Antimycotic in-vivo activity (oral) in mouse candidosis. The following applies: for Wirkung (Überlebende am 6. Tag p.i.): mice infected i.v. with Candida, 25-100 mg/kg oral, 1 h before and 7 h after infection; for Wirkung compared with (A) and (B): mouse candidosis, oral, statement in words. Details: species or system Mäuse vom Typ SPF-CF1. On the procedure:
Mäuse vom Typ SPF-CF₁ wurden intravenös mit 1 - 2 x 10⁶ logarithmisch wachsenden Candida-Zellen, die in physiologischer Kochsalzlösung suspendiert werden, infiziert. Eine Stunde vor und sieben Stunden nach der Infektion werden die Tiere mit jeweils 25 - 100 mg/kg Körpergewicht der Präparate oral behandelt.
Unbehandelte Tiere starben 3 bis 6 Tage post infektionem. Die Überlebensrate am 6.Tag post infektionem betrug bei unbehandelten Kontrolltieren etwa 5 %.

In brackets after ≈: the same amount, converted by molar mass. Where only a bound is given, the exact number is not on record here.

Regarding `CCCSCC(O)(Cn1cncn1)C(C)(C)Cc1ccc(Cl)cc1` (centres unmarked) [I-41], the MIC with Torulopsis glabrata is 4 µg/mL (≈ 10.9 µM); with Aspergillus fumigatus it was less than 1 µg/mL; in the test on Trichophyton mentagr. it was less than 1 µg/mL; in the test with Microsporum canis, less than 1 µg/mL; with Candida albicans, less than 1 µg/mL.
For `CCCCSCC(O)(Cn1cncn1)C(C)(C)Cc1ccc(Cl)cc1` (centres unmarked) [I-47], the MIC in the test with Torulopsis glabrata was 4 µg/mL (≈ 10.5 µM); with Aspergillus fumigatus, less than 1 µg/mL; in the test on Trichophyton mentagr. it was less than 1 µg/mL; in the test with Microsporum canis it was 4 µg/mL (≈ 10.5 µM); with Candida albicans, 2 µg/mL (≈ 5.24 µM).
As to `CCCSCC(O)(Cn1cncn1)C(C)(C)Cc1ccc(C)cc1` (centres unmarked) [I-49], the MIC in the test with Torulopsis glabrata is 2 µg/mL (≈ 5.75 µM); in the test with Aspergillus fumigatus, less than 1 µg/mL; in the test with Trichophyton mentagr., less than 1 µg/mL; in the test with Microsporum canis, 2 µg/mL (≈ 5.75 µM); in the test on Candida albicans, less than 1 µg/mL.
On to `CC(C)(Oc1ccc(-c2ccccc2)cc1)C(O)(CSc1ccc(Cl)cc1)Cn1cncn1` (centres unmarked) [I-93], for which, in the test on Candida-Zellen, the “Wirkung (Überlebende am 6. Tag p.i.)” value is reported as “+++++ (= sehr gute Wirkung = 90 % Überlebende am 6.Tag.p.i.)”; the “Wirkung compared with (A) and (B)” value was “bessere Wirkung”.
Consider `CC(C)(Cc1ccc(SC(F)(F)F)cc1)C(O)(CS)Cn1cncn1` (centres unmarked) [I-63], for which the MIC with Torulopsis glabrata is 16 µg/mL (≈ 40.9 µM); in the test on Aspergillus fumigatus, less than 1 µg/mL; in the test with Trichophyton mentagr. it was less than 1 µg/mL; in the test on Microsporum canis, 2 µg/mL (≈ 5.11 µM); with Candida albicans, 2 µg/mL (≈ 5.11 µM).
`CCSCC(O)(Cn1cncn1)C(C)(C)Cc1ccccc1C` (centres unmarked) [I-67]: the MIC in the test with Torulopsis glabrata was 2 µg/mL (≈ 6 µM); in the test on Aspergillus fumigatus, 4 µg/mL (≈ 12 µM); in the test on Trichophyton mentagr., less than 1 µg/mL; with Microsporum canis, 2 µg/mL (≈ 6 µM); in the test with Candida albicans, less than 1 µg/mL.
`CC(C)SCC(O)(Cn1cncn1)C(C)(C)Cc1ccc(Cl)cc1` (centres unmarked) [I-46]: the “Wirkung (Überlebende am 6. Tag p.i.)” value in the test with Candida-Zellen is recorded as “++ (= schwache Wirkung = 40 % Überlebende am 6.Tag.p.i.)”. The “Wirkung compared with (A) and (B)” value in the test on Candida-Zellen is “bessere Wirkung”. The MIC with Torulopsis glabrata was less than 1 µg/mL; in the test on Aspergillus fumigatus, less than 1 µg/mL; in the test with Trichophyton mentagr., less than 1 µg/mL; with Microsporum canis, 4 µg/mL (≈ 10.9 µM); in the test with Candida albicans, less than 1 µg/mL.
As for `CCCSCC(O)(Cn1cncn1)C(C)(C)Cc1ccc(SC(F)(F)F)cc1` (centres unmarked) [I-60], the MIC is 4 µg/mL (≈ 9.23 µM) with Torulopsis glabrata; less than 1 µg/mL in the test on Aspergillus fumigatus; less than 1 µg/mL in the test on Trichophyton mentagr.; 2 µg/mL (≈ 4.61 µM) in the test with Microsporum canis; 2 µg/mL (≈ 4.61 µM) in the test with Candida albicans.
As to `CCCCSCC(O)(Cn1cncn1)C(C)(C)Cc1ccc(SC(F)(F)F)cc1` (centres unmarked) [I-61], the MIC is 32 µg/mL (≈ 71.5 µM) in the test on Torulopsis glabrata; 2 µg/mL (≈ 4.47 µM) in the test with Aspergillus fumigatus; less than 1 µg/mL in the test on Trichophyton mentagr.; 2 µg/mL (≈ 4.47 µM) in the test with Microsporum canis; 8 µg/mL (≈ 17.9 µM) with Candida albicans.
As to `CCSCC(O)(Cn1cncn1)C(C)(C)Cc1ccc(C)cc1` (centres unmarked) [I-50], the MIC with Torulopsis glabrata was 4 µg/mL (≈ 12 µM); with Aspergillus fumigatus, less than 1 µg/mL; in the test on Trichophyton mentagr., less than 1 µg/mL; in the test with Microsporum canis, less than 1 µg/mL; in the test on Candida albicans, less than 1 µg/mL.
Regarding `CCCSCC(O)(Cn1cncn1)C(C)(C)Cc1ccc(OC(F)(F)F)cc1` (centres unmarked) [I-51], the “Wirkung (Überlebende am 6. Tag p.i.)” value in the test with Candida-Zellen was “++ (= schwache Wirkung = 40 % Überlebende am 6.Tag.p.i.)”. The “Wirkung compared with (A) and (B)” value with Candida-Zellen was “bessere Wirkung”. The MIC with Torulopsis glabrata, with Aspergillus fumigatus, with Trichophyton mentagr., in the test on Microsporum canis and in the test on Candida albicans was less than 1 µg/mL each time.
For `CCSCC(O)(Cn1cncn1)C(C)(C)COc1ccc(Cl)cc1` (centres unmarked) [I-68], the MIC in the test with Torulopsis glabrata was 4 µg/mL (≈ 10.8 µM); in the test with Aspergillus fumigatus, less than 1 µg/mL; with Trichophyton mentagr., less than 1 µg/mL; in the test on Microsporum canis it was less than 1 µg/mL; in the test on Candida albicans, less than 1 µg/mL.
For the compound `C=CCSCC(O)(Cn1cncn1)C(C)(C)Cc1ccc(Cl)cc1` (centres unmarked) [I-44], the MIC is 4 µg/mL (≈ 10.9 µM) in the test with Torulopsis glabrata; less than 1 µg/mL in the test with Aspergillus fumigatus; less than 1 µg/mL in the test with Trichophyton mentagr.; less than 1 µg/mL in the test with Microsporum canis; less than 1 µg/mL in the test on Candida albicans.
Take `Cc1cccc(CC(C)(C)C(O)(CSC(C)C)Cn2cncn2)c1` (centres unmarked) [I-65]: the MIC with Torulopsis glabrata worked out at 16 µg/mL (≈ 46 µM); in the test with Aspergillus fumigatus, 4 µg/mL (≈ 11.5 µM); in the test on Trichophyton mentagr., 2 µg/mL (≈ 5.75 µM); in the test on Microsporum canis, 4 µg/mL (≈ 11.5 µM); in the test on Candida albicans, 2 µg/mL (≈ 5.75 µM).
In the case of `CC(C)(Cc1ccc(F)cc1)C(O)(CSCc1ccc(Cl)cc1)Cn1cncn1` (centres unmarked) [I-58], the MIC in the test with Torulopsis glabrata was less than 1 µg/mL; in the test on Aspergillus fumigatus it was 8 µg/mL (≈ 18.4 µM); in the test with Trichophyton mentagr., less than 1 µg/mL; with Microsporum canis, 4 µg/mL (≈ 9.22 µM); with Candida albicans, 2 µg/mL (≈ 4.61 µM).
On to `CCSCC(O)(Cn1cncn1)C(C)(C)Cc1ccc(Cl)cc1` (centres unmarked) [I-45], for which the MIC was 2 µg/mL (≈ 5.65 µM) with Torulopsis glabrata; less than 1 µg/mL in the test on Aspergillus fumigatus; less than 1 µg/mL with Trichophyton mentagr.; less than 1 µg/mL with Microsporum canis; 2 µg/mL (≈ 5.65 µM) in the test on Candida albicans.
On to `CCCSCC(O)(Cn1cncn1)C(C)(C)COc1ccc(Cl)c(C)c1` (centres unmarked) [I-70], for which the MIC in the test with Torulopsis glabrata is 8 µg/mL (≈ 20.1 µM); in the test with Aspergillus fumigatus, 8 µg/mL (≈ 20.1 µM); with Trichophyton mentagr., less than 1 µg/mL; with Microsporum canis it was 2 µg/mL (≈ 5.03 µM); in the test on Candida albicans, less than 1 µg/mL.
Regarding `Cc1cc(Cl)ccc1OC(C)(C)C(O)(CSc1ccc(Cl)cc1)Cn1cncn1` (centres unmarked) [I-94], in the test with Candida-Zellen, the “Wirkung (Überlebende am 6. Tag p.i.)” value was “++++ (= gute Wirkung = 80 % Überlebende am 6.Tag.p.i.)”; the “Wirkung compared with (A) and (B)” value was “bessere Wirkung”.
As to `CCCSCC(O)(Cn1cncn1)C(C)(C)Cc1ccc(F)cc1` (centres unmarked) [I-53], the MIC was 2 µg/mL (≈ 5.69 µM) in the test with Torulopsis glabrata; less than 1 µg/mL with Aspergillus fumigatus; less than 1 µg/mL in the test with Trichophyton mentagr.; 2 µg/mL (≈ 5.69 µM) in the test with Microsporum canis; less than 1 µg/mL in the test with Candida albicans.
For the compound `CC(C)SCC(O)(Cn1cncn1)C(C)(C)Cc1ccc(F)cc1` (centres unmarked) [I-55], the MIC in the test on Torulopsis glabrata is 2 µg/mL (≈ 5.69 µM); in the test with Aspergillus fumigatus it was 2 µg/mL (≈ 5.69 µM); in the test on Trichophyton mentagr., less than 1 µg/mL; in the test on Microsporum canis, 2 µg/mL (≈ 5.69 µM); in the test with Candida albicans it was 2 µg/mL (≈ 5.69 µM).
As for `CCCCSCC(O)(Cn1cncn1)C(C)(C)Cc1cccc(C)c1` (centres unmarked) [I-66], the MIC in the test with Torulopsis glabrata was 8 µg/mL (≈ 22.1 µM); in the test on Aspergillus fumigatus it was 4 µg/mL (≈ 11.1 µM); with Trichophyton mentagr. it was 4 µg/mL (≈ 11.1 µM); in the test on Microsporum canis, 4 µg/mL (≈ 11.1 µM); in the test on Candida albicans, less than 1 µg/mL.
In the case of `CCSCC(O)(Cn1cncn1)C(C)(C)COc1ccc(Cl)c(C)c1` (centres unmarked) [I-69], the MIC in the test on Torulopsis glabrata was 16 µg/mL (≈ 41.7 µM); in the test with Aspergillus fumigatus, 2 µg/mL (≈ 5.21 µM); in the test on Trichophyton mentagr., less than 1 µg/mL; in the test on Microsporum canis, less than 1 µg/mL; in the test on Candida albicans, less than 1 µg/mL.
Regarding `CSCC(O)(Cn1cncn1)C(C)(C)Cc1ccc(Cl)cc1` (centres unmarked) [I-42], the MIC is 8 µg/mL (≈ 23.5 µM) with Torulopsis glabrata; less than 1 µg/mL with Aspergillus fumigatus; less than 1 µg/mL in the test on Trichophyton mentagr.; less than 1 µg/mL with Microsporum canis; less than 1 µg/mL in the test with Candida albicans.
Take `CC(C)CSCC(O)(Cn1cncn1)C(C)(C)Cc1ccc(Cl)cc1` (centres unmarked) [I-43]: the MIC was 4 µg/mL (≈ 10.5 µM) in the test on Torulopsis glabrata; less than 1 µg/mL in the test on Aspergillus fumigatus; less than 1 µg/mL with Trichophyton mentagr.; less than 1 µg/mL with Microsporum canis; less than 1 µg/mL in the test on Candida albicans.
As to `CCSCC(O)(Cn1cncn1)C(C)(C)Cc1cccc(C)c1` (centres unmarked) [I-64], the MIC in the test on Torulopsis glabrata was 4 µg/mL (≈ 12 µM); in the test on Aspergillus fumigatus, 4 µg/mL (≈ 12 µM); in the test on Trichophyton mentagr., 2 µg/mL (≈ 6 µM); with Microsporum canis, 2 µg/mL (≈ 6 µM); in the test with Candida albicans, less than 1 µg/mL.
In the case of `CCSCC(O)(Cn1cncn1)C(C)(C)Cc1ccc(F)cc1` (centres unmarked) [I-2], the MIC is 4 µg/mL (≈ 11.9 µM) in the test with Torulopsis glabrata; 2 µg/mL (≈ 5.93 µM) in the test with Aspergillus fumigatus; less than 1 µg/mL in the test with Trichophyton mentagr.; 2 µg/mL (≈ 5.93 µM) in the test with Microsporum canis; less than 1 µg/mL in the test with Candida albicans.
